From patent US20100190846A1, “MICROBICIDAL AGENT AND MICROBICIDAL COMPOSITION” (priority 2006, published 2010)
Values after ≈ are worked out from the molar mass of the structure shown.

Key:
Assay in all cases: Agar dilution method microbicidal test
Type in all cases: cell-based
[1] = system: Bacillus subtilis ATCC6633; on Growth on agar plate: key: +: grew; −: did not grow
Experimental: (§1) As microbicidal test method for trans-p-coumaric acid, 3-hydroxypyridine, p-hydroxybenzaldehyde and vanillin, the agar dilution method was employed.
(§2) In agar dilution method, a solution in which a sample is dissolved is serially diluted several times, and each of the diluted sample solutions is mixed with agar medium to prepare plate agars having various sample concentration. Then bacteria is inoculated onto the plate agars. In cases where the sample has a microbicidal activity, the growth of the bacteria on the plates can be inhibited. The lowest concentration which can inhibit the growth of the bacteria is referred to as Minimum Inhibitory Concentration (MIC), thereby judging the degree of a microbicidal activity of the sample.
(§3) First, 400 mg of sample was dissolved in 1 mL of DMSO to prepare 400 mg/mL sample solution. Then 0.5 mL of this 400 mg/mL sample solution was diluted 2-fold to prepare 200 mg/mL sample solution. In the same manner, sample solutions of 100 mg/mL, 50.0 mg/mL, and 25.0 mg/mL were prepared. In addition, 300 mg/mL sample solution was prepared. Thereafter, 0.2 mL of these sample solutions each was mixed with 19.8 mL of BHI (Brain Heart Infusion Agar, Becton Dickinson, MD) medium, thereby preparing agar plates having the sample concentration of 4.0 mg/mL, 3.0 mg/mL, 2.0 mg/mL, 1.0 mg/mL, 0.5 mg/mL, and 0.25 mg/mL in dishes. […] Sterilized water was used for dissolving catechin, because catechin was insoluble in DMSO.
(§4) As test bacteria, 13 kinds of bacteria, i.e., Streptococcus pneumoniae, Streptococcus pyogenes, Enterococcus faecalis, Staphylococcus aureus, Escherichia coli, Salmonella sp., Yersinia enterocolitica, Vibrio parahaemolyticus, Pseudomonas aeruginosa, Bacillus cereus, Bacillus subtilis MB-32, Bacillus subtilis ATCC6633, and Candida sp., were used. These bacteria each was mixed with 2 mL of sterilized MHB^R liquid medium (Mueller Hinton Broth^R, Becton Dickinson, MD) to prepare bacterial suspension having turbidity 1 (bacterial concentration 10^8/mL). Previously, small test tubes were set into each cell of a grating and sterilized, and 1 mL of 13 bacterial suspensions were added into the small test tubes set in the grating, respectively. By using a microplanter (SAKUMA, model: MIT-P), 10 μL aliquot was collected from each test tube set in the grating and transferred to other test tube, and the transferred bacterial suspensions were diluted 100-fold (bacterial concentration 10^6/mL).
(§5) By using the microplanter, 10 μL (bacterial number […]) of this bacterial suspension was inoculated onto the plates containing the sample solution of various concentrations. The plates were incubated for 18 hours in an incubator at 37° C., and then a microbicidal activity of each compound was assessed.

Streptococcus pyogenes = system: Streptococcus pyogenes; on Growth on agar plate: key: +: grew; −: did not grow
Experimental: as §1, §2, §3, §4, §5

Salmonella sp. = system: Salmonella sp. On Growth on agar plate: key: +: grew; −: did not grow.
Experimental: as §1, §2, §3, §4, §5

Enterococcus faecalis = system: Enterococcus faecalis; further: key: +: grew; −: did not grow
Experimental: as §1, §2, §3, §4, §5

Streptococcus pneumoniae = system: Streptococcus pneumoniae; on Growth on agar plate: key: +: grew; −: did not grow
Experimental: as §1, §2, §3, §4, §5

Bacillus subtilis MB-32 = system: Bacillus subtilis MB-32; on Growth on agar plate: key: +: grew; −: did not grow
Experimental: as §1, §2, §3, §4, §5

Yersinia enterocolitica = system: Yersinia enterocolitica; on Growth on agar plate: key: +: grew; −: did not grow
Experimental: as §1, §2, §3, §4, §5

Staphylococcus aureus = system: Staphylococcus aureus; on Growth on agar plate: key: +: grew; −: did not grow
Experimental: as §1, §2, §3, §4, §5

Candida sp. = system: Candida sp. On Growth on agar plate: key: +: grew; −: did not grow.
Experimental: as §1, §2, §3, §4, §5

Bacillus cereus = system: Bacillus cereus; on Growth on agar plate: key: +: grew; −: did not grow
Experimental: as §1, §2, §3, §4, §5

Pseudomonas aeruginosa = system: Pseudomonas aeruginosa; on Growth on agar plate: key: +: grew; −: did not grow
Experimental: as §1, §2, §3, §4, §5

Escherichia coli = system: Escherichia coli; on Growth on agar plate: key: +: grew; −: did not grow
Experimental: as §1, §2, §3, §4, §5

Vibrio parahaemolyticus = system: Vibrio parahaemolyticus; on Growth on agar plate: key: +: grew; −: did not grow
Experimental: as §1, §2, §3, §4, §5

[2] = BHI agar, 37° C., 18 hours, read-out: MIC

Compound: O=Cc1ccc(O)cc1 [p-Hydroxybenzaldehyde, p-hydroxybenzaldehyde]
- MIC ([1]; ATCC6633, Bacillus subtilis ATCC 6633, BHI agar, 37° C., 18 hours, read-out: MIC): 3000 µg/mL (≈ 24.6 mM)
- activity (in words) ([1]; Bacillus subtilis ATCC6633): had an activity
- Growth on agar plate ([1]; Bacillus subtilis ATCC 6633, 0.25 mg/mL): +
- Growth on agar plate ([1]; Bacillus subtilis ATCC 6633, 0.5 mg/mL): +
- Growth on agar plate ([1]; Bacillus subtilis ATCC 6633, 1.0 mg/mL): +
- Growth on agar plate ([1]; Bacillus subtilis ATCC 6633, 2.0 mg/mL): +
- Growth on agar plate ([1]; Bacillus subtilis ATCC 6633, 3.0 mg/mL): −
- Growth on agar plate ([1]; Bacillus subtilis ATCC 6633, 4.0 mg/mL): −
- activity (in words) (Streptococcus pyogenes): had an activity
- Growth on agar plate (Streptococcus pyogenes; 0.25 mg/mL): +
- Growth on agar plate (Streptococcus pyogenes; 0.5 mg/mL): +
- Growth on agar plate (Streptococcus pyogenes; 1.0 mg/mL): +
- Growth on agar plate (Streptococcus pyogenes; 2.0 mg/mL): −
- Growth on agar plate (Streptococcus pyogenes; 3.0 mg/mL): −
- Growth on agar plate (Streptococcus pyogenes; 4.0 mg/mL): −
- MIC (Streptococcus pyogenes; [2]): 2000 µg/mL (≈ 16.4 mM)
- activity (in words) (Salmonella sp.): had an activity
- Growth on agar plate (Salmonella sp.; 0.25 mg/mL): +
- Growth on agar plate (Salmonella sp.; 0.5 mg/mL): +
- Growth on agar plate (Salmonella sp.; 1.0 mg/mL): +
- Growth on agar plate (Salmonella sp.; 2.0 mg/mL): −
- Growth on agar plate (Salmonella sp.; 3.0 mg/mL): −
- Growth on agar plate (Salmonella sp.; 4.0 mg/mL): −
- MIC (Salmonella sp.; [2]): 2000 µg/mL (≈ 16.4 mM)
- Growth on agar plate (Enterococcus faecalis; 0.25 mg/mL): +
- Growth on agar plate (Enterococcus faecalis; 0.5 mg/mL): +
- Growth on agar plate (Enterococcus faecalis; 1.0 mg/mL): +
- Growth on agar plate (Enterococcus faecalis; 2.0 mg/mL): +
- Growth on agar plate (Enterococcus faecalis; 3.0 mg/mL): +
- Growth on agar plate (Enterococcus faecalis; 4.0 mg/mL): +
- activity (in words) (Streptococcus pneumoniae): had an activity
- Growth on agar plate (Streptococcus pneumoniae; 0.25 mg/mL): +
- Growth on agar plate (Streptococcus pneumoniae; 0.5 mg/mL): +
- Growth on agar plate (Streptococcus pneumoniae; 1.0 mg/mL): +
- Growth on agar plate (Streptococcus pneumoniae; 2.0 mg/mL): −
- Growth on agar plate (Streptococcus pneumoniae; 3.0 mg/mL): −
- Growth on agar plate (Streptococcus pneumoniae; 4.0 mg/mL): −
- MIC (Streptococcus pneumoniae; [2]): 2000 µg/mL (≈ 16.4 mM)
- activity (in words) (Bacillus subtilis MB-32): had an activity
- Growth on agar plate (Bacillus subtilis MB-32; 0.25 mg/mL): +
- Growth on agar plate (Bacillus subtilis MB-32; 0.5 mg/mL): +
- Growth on agar plate (Bacillus subtilis MB-32; 1.0 mg/mL): +
- Growth on agar plate (Bacillus subtilis MB-32; 2.0 mg/mL): +
- Growth on agar plate (Bacillus subtilis MB-32; 3.0 mg/mL): +
- Growth on agar plate (Bacillus subtilis MB-32; 4.0 mg/mL): −
- MIC (Bacillus subtilis MB-32; MB32, BHI agar, 37° C., 18 hours, read-out: MIC): 3000 µg/mL (≈ 24.6 mM)
- activity (in words) (Yersinia enterocolitica): strong microbicidal activity
- Growth on agar plate (Yersinia enterocolitica; 0.25 mg/mL): +
- Growth on agar plate (Yersinia enterocolitica; 0.5 mg/mL): −
- Growth on agar plate (Yersinia enterocolitica; 1.0 mg/mL): −
- Growth on agar plate (Yersinia enterocolitica; 2.0 mg/mL): −
- Growth on agar plate (Yersinia enterocolitica; 3.0 mg/mL): −
- Growth on agar plate (Yersinia enterocolitica; 4.0 mg/mL): −
- MIC (Yersinia enterocolitica; [2]): 500 µg/mL (≈ 4.09 mM)
- activity (in words) (Staphylococcus aureus): had an activity
- Growth on agar plate (Staphylococcus aureus; 0.25 mg/mL): +
- Growth on agar plate (Staphylococcus aureus; 0.5 mg/mL): +
- Growth on agar plate (Staphylococcus aureus; 1.0 mg/mL): +
- Growth on agar plate (Staphylococcus aureus; 2.0 mg/mL): +
- Growth on agar plate (Staphylococcus aureus; 3.0 mg/mL): −
- Growth on agar plate (Staphylococcus aureus; 4.0 mg/mL): −
- MIC (Staphylococcus aureus; [2]): 3000 µg/mL (≈ 24.6 mM)
- activity (in words) (Candida sp.): had an activity
- Growth on agar plate (Candida sp.; 0.25 mg/mL): +
- Growth on agar plate (Candida sp.; 0.5 mg/mL): +
- Growth on agar plate (Candida sp.; 1.0 mg/mL): +
- Growth on agar plate (Candida sp.; 2.0 mg/mL): +
- Growth on agar plate (Candida sp.; 3.0 mg/mL): −
- Growth on agar plate (Candida sp.; 4.0 mg/mL): −
- MIC (Candida sp.; [2]): 3000 µg/mL (≈ 24.6 mM)
- activity (in words) (Bacillus cereus): had an activity
- Growth on agar plate (Bacillus cereus; 0.25 mg/mL): +
- Growth on agar plate (Bacillus cereus; 0.5 mg/mL): +
- Growth on agar plate (Bacillus cereus; 1.0 mg/mL): +
- Growth on agar plate (Bacillus cereus; 2.0 mg/mL): +
- Growth on agar plate (Bacillus cereus; 3.0 mg/mL): −
- Growth on agar plate (Bacillus cereus; 4.0 mg/mL): −
- MIC (Bacillus cereus; [2]): 3000 µg/mL (≈ 24.6 mM)
- activity (in words) (Pseudomonas aeruginosa): had an activity
- Growth on agar plate (Pseudomonas aeruginosa; 0.25 mg/mL): +
- Growth on agar plate (Pseudomonas aeruginosa; 0.5 mg/mL): +
- Growth on agar plate (Pseudomonas aeruginosa; 1.0 mg/mL): +
- Growth on agar plate (Pseudomonas aeruginosa; 2.0 mg/mL): −
- Growth on agar plate (Pseudomonas aeruginosa; 3.0 mg/mL): −
- Growth on agar plate (Pseudomonas aeruginosa; 4.0 mg/mL): −
- MIC (Pseudomonas aeruginosa; [2]): 2000 µg/mL (≈ 16.4 mM)
- activity (in words) (Escherichia coli): had an activity
- Growth on agar plate (Escherichia coli; 0.25 mg/mL): +
- Growth on agar plate (Escherichia coli; 0.5 mg/mL): +
- Growth on agar plate (Escherichia coli; 1.0 mg/mL): +
- Growth on agar plate (Escherichia coli; 2.0 mg/mL): −
- Growth on agar plate (Escherichia coli; 3.0 mg/mL): −
- Growth on agar plate (Escherichia coli; 4.0 mg/mL): −
- MIC (Escherichia coli; [2]): 2000 µg/mL (≈ 16.4 mM)
- activity (in words) (Vibrio parahaemolyticus): had an activity
- Growth on agar plate (Vibrio parahaemolyticus; 0.25 mg/mL): +
- Growth on agar plate (Vibrio parahaemolyticus; 0.5 mg/mL): +
- Growth on agar plate (Vibrio parahaemolyticus; 1.0 mg/mL): +
- Growth on agar plate (Vibrio parahaemolyticus; 2.0 mg/mL): −
- Growth on agar plate (Vibrio parahaemolyticus; 3.0 mg/mL): −
- Growth on agar plate (Vibrio parahaemolyticus; 4.0 mg/mL): −
- MIC (Vibrio parahaemolyticus; [2]): 2000 µg/mL (≈ 16.4 mM)
